Measured values: patent US20140294729A1, “METHODS FOR IDENTIFICATION AND USE OF AGENTS TARGETING CANCER STEM CELLS” (Whitehead Institute for Biomedical Research, priority 2008, published 2014)
Entries after “also recorded” stand apart in the source; their conditions may differ.

What was measured:
Type in all cases: cell-based, human
HMLERshEcad cells = test: Resistance to cytotoxic agents, transformed HMLERshCntrl vs HMLERshEcad dose response; conditions: FIG. 2A
Method: (§1) FIGS. 2A-2D depict that passage through the EMT leads to resistance to conventional chemotherapy drugs. FIG. 2A depicts dose response curves of transformed HMLERshCntrl (light gray line) and HMLERshEcad (dark gray line) cells treated with Paclitaxel and Doxorubicin. Dotted line denotes the 50% fraction surviving. […] FIG. 2B depicts the response of immortalized cells to chemotherapy drugs. HMLEshCntrl and HMLEshEcad cells were treated with the indicated drugs at three concentrations for 3 days and assayed for viability using the MTS assay. While Doxorubucin, Actinomycin D, Paclitaxel and Campthotecin are chemotherapeutic drugs, Staurosporine is a general kinase inhibitor that potently induce apoptosis. FIGS. 2C and 2D depict paclitaxel treatment leads to selective expansion of a minority cell population that has undergone an EMT. Control HMLE cells and GFP expressing HMLEshEcad cells were mixed at a ratio of 20:1 and seeded onto 6-well plates in triplicate. DMSO or Paclitaxel at 2.5 nm or 10 nm concentration was added onto the mixed cell populations 1 day after seeding followed by a 3 day incubation. The number of GFP-positive cells at the end of treatment were analyzed by flow cytometry. […] Note the increase in GFP positivity from 5% to 14% upon […] Paclitaxel treatment.
Since the HMLERsiEcad cells have a 100-fold increase in the frequency of cells capable of seeding tumors, we examined their response to two commonly used chemotherapy drugs, relative to HMLERsiGFP controls. We treated cultured HMLERsiGFP and HMLERsiEcad cells for a period of 3 days with either doxorubicin or paclitaxel, at various concentrations.
Doxorubicin, paclitaxel, actinomycin D, campthotecin and staurosporine were purchased from Sigma and dissolved in dimethyl sulfoxide (dmso). 5000 cells in 100 ul of medium were plated per well in 96-well plates. 24 hrs after seeding, compounds at the indicated concentration were added to wells (5 wells per each concentration). Dmso treatment was used as negative control. Cell viability was measured after 72 hrs using the CellTiter96 AQueous Assay (Promega) according to manufacturer's instructions. Dose response curves were generated with GraphPad Prism software (GraphPad Software, Inc.).

HMLEshEcad cells [1] = test: Co-culture of GFP-labeled HMLEshEcad cells and control HMLE cells (1:20), FACS for GFP positivity
Method: as §1
To further characterize the observed drug resistance, we paclitaxel-treated co-cultures of GFP-labeled HMLEshEcad cells and unlabeled controls cells (1:20 ratio).
This was observed independently of whether or not the cell lines had undergone neoplastic transformation. To determine the effect of conventional chemotherapy drugs on a mixture of epithelial cells that have and epithelial cells that have not undergone EMT, we co-mixed GFP-labeled HMLEsiEcad cells with unlabeled HMLEsiGFP cells at a ratio of 1:20, and treated the resulting co-culture with Paclitaxel. This non-stoichiometric mixture provided an internally controlled method to evaluate whether differential drug sensitivity was also manifest under conditions in which epithelial cells having undergone EMT were in the minority.
(§2) For the mix experiments, unlabelled and GFP-labeled cells were mixed at the indicated ratios and seeded onto 6-well plates. Triplicate wells were then treated with dmso or the compounds (paclitaxel, salinomycin, abamectin and blasticidin) for 48 hrs. The cells were washed with PBS, trypsinized and analyzed by FACS for GFP positivity.

HMLEshEcad cells [2] = test: Dose-response viability of HMLEshCntrl vs HMLEshEcad cells (validation of hits, 384-well, Cell-Titer-Glo); conditions: FIG. 4A; for selective toxicity towards HMLEshEcad cells relative to HMLEshCntrl cells: dose response on retesting
Method: (§3) FIG. 4A depicts dose response curves of HMLEshCntrl (A, light gray curve) and HMLEshEcad (A, dark gray curve) cells treated with the 8 compounds identified during the initial screen. 1000 cells of each line were seeded onto 384 well plates and treated with 8 different concentrations of compounds within a 2.5 log range. The cell viability after 3 day treatment was measured by Cell-Titer-Glo. […] FIG. 4B depicts dose response curves of HMLEshCntrl (curve with square data points) and HMLE-Twist (curve with triangular data points) cells treated with the same compounds as in (A). Note that selectivity of Salinomycin, Abamectin, Etoposide and Nigericin (Top, Left-to-Right) is retained even though a different method of EMT induction is used. […] 1 Day after seeding DMSO, Salinomycin (1.25 or 5 μM) or Abamectin (0.25 or 1.25 μM) was added at the indicated concentration. As the GFP vector contains a Blasticidin resistance gene, we used Blasticidin treatment as a positive control for the expansion of GFP-expressing control HMLE cells. After 3 day incubation the mix population of cells were analyzed by flow cytometry and the percentage of GFP-positive cells were determined. […] FIG. 4D depicts dose response curves of transformed HMLERshCntrl (light gray line) and HMLERshEcad (dark gray lines) cells treated with Salinomycin and Abamectin. Dotted line denotes the 50% fraction surviving.
We pursued 8 of the 32 compounds for further study and evaluated their effects across a range of doses.
For each of these compounds, we evaluated the effect on cell viability across a series of doses for sibling cell lines either induced into or not induced into EMT.
Information about the general automated HTS protocol is available online at broad.harvard.edu/chembio/index.html. The assay was initiated by plating 40 μL of medium containing 1000 cells/well into white 384-well opaque-bottom plates (Nunc, Rochester, N.Y.) using an automated plate filler (Bio-Tek μFiller; Winsooki, Vt.) and allowing the cells to adhere for 24 hours. 100 nL of compound stock solutions in dmso was transferred from stock plates into the 384-well assay plates using an automated pin-based compound transfer robot (CyBio CyBi-Well vario; Woburn, Mass.). For most compounds the final concentration in each well was calculated to be 10 uM.
The screen was performed in duplicate. For negative controls, entire dmso-treated control plates were employed, in addition to dmso-only control wells that were incorporated into each compound assay plate. The cells were assayed for luciferase activity with the addition 20 ul of CellTiter-Glo Luminescent Cell Viability Assay solution (Promega). The luminescent signal from each plate was detected using an automated plate reader (Perkin-Elmer Envision 1; Wellesley, Mass.).
(§4) Individual compounds were purchased from Sigma and dissolved in DMSO with the exception of nigericin which was dissolved in 100% ethanol. Activity of the compounds were quantified by generating dose-response curves for HMLE-shCntrl, HMLE-shEcad and HMLE-Twist under the same cell density and culture conditions described for the initial screen, using the 384-well plate based system.

HMLE-Twist cells [3] = test: Dose-response viability of HMLEshCntrl vs HMLE-Twist cells; conditions: EMT induced by Twist, FIG. 4B
Method: as §3, §4

HMLE-Twist cells [4] = test: Co-culture of GFP-expressing HMLE cells and unlabelled HMLE-Twist cells, FACS for GFP positivity; conditions: FIG. 4C
Method: as §3
To examine the effects of salinomycin and abamectin treatment on heterogeneous populations of epithelial cells that have and epithelial cells that have not undergone EMT, we co-mixed GFP-labeled HMLE cells with unlabeled HMLE-Twist cells, treating the resulting co-cultures with compounds. As a positive control for this experiment we treated co-cultures with blasticidin, which selects for the differentiated HMLE-GFP cells, which harbor a blasticidin-resistance gene.
as §2

Row | Structure (SMILES) | IC50 for HMLERsiEcad cells relative to IC50 for HMLERsiGFP cells (HMLERshEcad cells; 3 days, various concentrations) | resistance of HMLERshEcad cells compared to HMLERshCntrl cells (HMLERshEcad cells) | resistance of HMLERshEcad cells compared to HMLERshCntrl cells (HMLERshEcad cells; listed as Paclitaxel) | increase in HMLEsiEcad cells having undergone EMT (HMLEshEcad cells [1]; 2.5 nM) | increase in HMLEsiEcad cells having undergone EMT relative to DMSO-treated co-cultures (HMLEshEcad cells [1]; 10 nM, after 3 days, 1:20 ratio) | increase in the proportion of HMLEshEcad cells compared to DMSO-treated co-cultures (HMLEshEcad cells [1]; 10 nM, treatment for 4 days, 1:20 ratio) | GFP positivity after treatment (from 5%) (HMLEshEcad cells [1]; 3 day incubation) | IC50 fold lower for HMLEshEcad cells vs HMLEshCntrl cells (HMLEshEcad cells [2]; 3 day treatment, 8 concentrations) | selective toxicity towards HMLEshEcad cells relative to HMLEshCntrl cells (HMLEshEcad cells [2]) | selective toxicity towards HMLEshEcad cells relative to HMLEshCntrl cells (HMLEshEcad cells [2]; listed as Salinomycin) | selectivity for HMLE-Twist cells vs HMLEshCntrl; dose-response curves compared with HMLEshEcad (HMLE-Twist cells [3]) | GFP-positive fraction relative to DMSO-treated controls (HMLE-Twist cells [4]; GFP-labeled HMLE + unlabeled HMLE-Twist) | proportion of HMLETwist cells in co-culture with control cells (HMLE-Twist cells [4]; Salinomycin 1.25 or 5 μM, Abamectin 0.25 or 1.25 μM)
1 | CC(=O)O[C@H]1C(=O)[C@@]2(C)[C@H]([C@H](OC(=O)c3ccccc3)[C@]3(O)C[C@H](OC(=O)[C@H](O)[C@@H](NC(=O)c4ccccc4)c4ccccc4)C(C)=C1C3(C)C)[C@]1(OC(C)=O)CO[C@@H]1C[C@@H]2O [paclitaxel] | significantly higher | significantly more resistant | more resistant | more modest increase | 4 fold | 4 fold | 14% |  |  |  |  |  | 
2 | CC[C@@H](C(=O)[C@@H](C)[C@@H](O)[C@H](C)[C@@H]1O[C@@H]([C@@H](CC)C(=O)O)CC[C@@H]1C)[C@H]1O[C@]2(C=C[C@@H](O)[C@]3(CC[C@@](C)([C@H]4CC[C@](O)(CC)[C@H](C)O4)O3)O2)[C@H](C)C[C@@H]1C [salinomycin] |  |  |  |  |  |  |  | ~10 fold | moderate to strong selectivity; also recorded: strong specificity | selective toxicity | is retained | increase | dose-dependent decrease; also recorded: selection against the GFP-negative HMLE-twist cells
